Values of other authors as cited in patent US20040084867A1, “Individualization of therapy with anticoagulants” (Xanthus Life Sciences, Inc., priority 2002, published 2004).
Where two headings read alike, the source gives them in different places.

Key:
[1] = tested on: individuals with deep vein thrombosis; conditions: cited from earlier work
[2] = tested on: individuals treated with warfarin; conditions: cited from earlier work
[3] = molecular target: CYP2C9 (Homo sapiens, UniProt P11712); conditions: in vivo; cited from earlier work
Chain of CYP2C9 (Homo sapiens, UniProt P11712) (P11712 whole entry): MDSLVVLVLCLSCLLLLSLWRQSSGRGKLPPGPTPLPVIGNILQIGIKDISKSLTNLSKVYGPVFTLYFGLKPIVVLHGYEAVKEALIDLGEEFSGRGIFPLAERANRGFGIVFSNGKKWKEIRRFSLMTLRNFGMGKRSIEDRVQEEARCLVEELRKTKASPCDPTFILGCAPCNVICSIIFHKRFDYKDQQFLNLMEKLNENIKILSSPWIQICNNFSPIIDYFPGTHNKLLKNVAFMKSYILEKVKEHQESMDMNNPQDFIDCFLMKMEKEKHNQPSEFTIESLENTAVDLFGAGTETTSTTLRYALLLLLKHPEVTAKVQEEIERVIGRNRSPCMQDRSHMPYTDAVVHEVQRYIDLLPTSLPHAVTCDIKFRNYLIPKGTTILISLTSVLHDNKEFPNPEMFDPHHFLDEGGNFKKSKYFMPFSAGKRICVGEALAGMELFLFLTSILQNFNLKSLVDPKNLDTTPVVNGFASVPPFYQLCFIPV

[4] = tested on: CYP2C9; conditions: cited from earlier work

In the case of `CC(=O)CC(c1ccccc1)c1c(O)c2ccccc2oc1=O` (racemic) [warfarin], the recurrence rate ([1]; Lagerstedt 1985, calf vein thrombosis, heparin 5 days then warfarin 3 months vs only heparin […] days) is given as “no recurrences”, the incidence of recurrence ([1]; both groups: INR 2.5 to 4.5 and INR 2.0 to 2.5) is given as “approximately 2%” and the effective daily doses ([2]; inter-individual range) is given as 1 to 60 mg/day. The “daily dose required to maintain efficacy while avoiding side effects” value ([2]; varies from one individual to another) was 0.5 to 60 mg, the “MD (maintenance dose)” value [3] was “vs. 0.397 (*1/*1) mg/kg/wk” and the “MD (daily maintenance dose)” value ([4]; 1 individual, not specified, *3/*3) was 0.5 mg/day. The “MD (maintenance dose)” value ([4]; 38 Caucasian and African-American, *1/*3, *1/*2, *2/*2, CYP2A6*1/*2) was “MD; 0.307 (*1/*3, *1/*2, *2/*2, CYP2A6*1/*2) mg/kg/wk”, the “MD (daily maintenance dose)” value ([4]; 47 Japanese, *1/*3) was 1.75 mg/day and the “MD (daily maintenance dose)” value ([4]; 47 Japanese, *3/*3) was 0.4 mg/day. The “MD (daily maintenance dose)” value ([4]; 52 British, *1/*2, *2/*2) was 3.5 mg/day, the “MD (daily maintenance dose)” value ([4]; 52 British, *1/*3) was 2.5 mg/day and the “share of group with at least 1 of *3 or *2 allele” value ([4]; 88 British, control group) was 1 of *3 or *2 allele vs. only 38% of control. The “risks of major bleeding” value ([4]; 88 British, low dose group) was “group; ↑ risks of major bleeding in the low dose”, the “MD (daily maintenance dose)” value ([4]; 94 British, CYP2C9 *1/*2) was 3.8 mg/day and the “MD (daily maintenance dose)” value ([4]; 180 Caucasian, *1/*2, *2/*2) was 5.2 mg/day. The “MD (daily maintenance dose)” value ([4]; 180 Caucasian, *1/*3) was 3.8 mg/day, the “MD (daily maintenance dose)” value ([4]; 180 Caucasian, *2/*3) was 1.8 mg/day and the “MD (daily maintenance dose)” value ([4]; 561 British, *1/*2) was 4.31 mg/day. The “MD (daily maintenance dose)” value ([4]; 561 British, *1/*3) was 3.97 mg/day, the “MD (daily maintenance dose)” value ([4]; 561 British, *2/*2) was 3.04 mg/day and the “MD (daily maintenance dose)” value ([4]; 561 British, *2/*3) was 4.09 mg/day. For the same compound, the “share of subjects homozygous for CYP2C9*1” value ([4]; subjects requiring a high dose (>55 mg/week)) was 83% and the “share of subjects heterozygous for CYP2C9*2” value ([4]; subjects requiring a low dose (5-15 mg/week)) was 90%.
